Laboratory results taken from patent publication US6525001B1, “Substituted pyrimidine and pyridine herbicides” (Mid-American Commercialization Corporation, priority 1997, dated 2003).

Key:
Assay in all cases: Test B pre-/postemergence
Assay type in all cases: in vivo
Parameters in all cases: key: 0 is no effect; 10 is complete control
[1] = system: bedstraw (Galium aparine)
Procedure, shortened: (§1)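 Seeds were planted and sprayed preemergence, while plants at 2 to 18 cm (1- to 4-leaf stage) were sprayed postemergence at the same time, with test chemical in a non-phytotoxic solvent mixture containing surfactant. After twelve to sixteen days in a greenhouse, injury was rated visually against untreated controls on a 0–10 scale.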

[2] = system: blackgrass (Alopecurus myosuroides)
Procedure, shortened: as §1

[3] = system: broadleaf signalgrass (Brachiaria decumbens)
Procedure, shortened: as §1

[4] = system: cocklebur (Xanthium strumarium)
Procedure, shortened: as §1

[5] = system: corn (Zea mays)
Procedure, shortened: as §1

[6] = system: crabgrass (Digitaria sanguinalis)
Procedure, shortened: as §1

[7] = system: giant foxtail (Setaria faberii)
Procedure, shortened: as §1

[8] = system: momingglory (Ipomoea hederacea)
Procedure, shortened: as §1

[9] = system: pigweed (Amaranthus retroflexus)
Procedure, shortened: as §1

[10] = system: rape (Brassica napus)
Procedure, shortened: as §1

[11] = system: soybean (Glycine max)
Procedure, shortened: as §1

[12] = system: sugar beet (Beta vulgaris)
Procedure, shortened: as §1

[13] = system: velvetleaf (Abutilon theophrasti)
Procedure, shortened: as §1

[14] = system: wheat (Triticum aestivum)
Procedure, shortened: as §1

Cc1cnc(-c2ccc(C(F)(F)F)cc2)nc1Cc1cccc(C(F)(F)F)c1 [Example 1, 5-methyl-2-[4-(trifluoromethyl)phenyl]-4-[[3-(trifluoromethyl)phenyl]methyl]pyrimidine]
Plant response rating, Bedstraw ([1]; Rate 62 g/ha, Postemergence): 9
Bedstraw plant response rating ([1]; Rate 62 g/ha, Preemergence): 8
Plant response rating, Bedstraw ([1]; Rate 125 g/ha, Postemergence): 9
Bedstraw plant response rating ([1]; Rate 125 g/ha, Preemergence): 8
Plant response rating, Bedstraw ([1]; Rate 250 g/ha, Postemergence): 9
Plant response rating, Bedstraw ([1]; Rate 250 g/ha, Preemergence): 8
Plant response rating, Bedstraw ([1]; Rate 500 g/ha, Postemergence): 10
Plant response rating, Bedstraw ([1]; Rate 500 g/ha, Preemergence): 9
Plant response rating, Blackgrass ([2]; Rate 62 g/ha, Postemergence): 7
Blackgrass plant response rating ([2]; Rate 62 g/ha, Preemergence): 8
Plant response rating, Blackgrass ([2]; Rate 125 g/ha, Postemergence): 7
Blackgrass plant response rating ([2]; Rate 125 g/ha, Preemergence): 9
Plant response rating, Blackgrass ([2]; Rate 250 g/ha, Postemergence): 9
Plant response rating, Blackgrass ([2]; Rate 250 g/ha, Preemergence): 10
Plant response rating, Blackgrass ([2]; Rate 500 g/ha, Postemergence): 9
Plant response rating, Blackgrass ([2]; Rate 500 g/ha, Preemergence): 10
Plant response rating, B. signalgrass ([3]; Rate 62 g/ha, Postemergence): 3
B. signalgrass plant response rating ([3]; Rate 62 g/ha, Preemergence): 9
Plant response rating, B. signalgrass ([3]; Rate 125 g/ha, Postemergence): 6
B. signalgrass plant response rating ([3]; Rate 125 g/ha, Preemergence): 9
Plant response rating, B. signalgrass ([3]; Rate 250 g/ha, Postemergence): 8
Plant response rating, B. signalgrass ([3]; Rate 250 g/ha, Preemergence): 9
Plant response rating, B. signalgrass ([3]; Rate 500 g/ha, Postemergence): 9
Plant response rating, B. signalgrass ([3]; Rate 500 g/ha, Preemergence): 9
Plant response rating, Cocklebur ([4]; Rate 62 g/ha, Postemergence): 7
Cocklebur plant response rating ([4]; Rate 62 g/ha, Preemergence): 2
Plant response rating, Cocklebur ([4]; Rate 125 g/ha, Postemergence): 8
Cocklebur plant response rating ([4]; Rate 125 g/ha, Preemergence): 2
Plant response rating, Cocklebur ([4]; Rate 250 g/ha, Postemergence): 9
Plant response rating, Cocklebur ([4]; Rate 250 g/ha, Preemergence): 3
Plant response rating, Cocklebur ([4]; Rate 500 g/ha, Postemergence): 10
Plant response rating, Cocklebur ([4]; Rate 500 g/ha, Preemergence): 10
Plant response rating, Corn ([5]; Rate 62 g/ha, Postemergence): 4
Corn plant response rating ([5]; Rate 62 g/ha, Preemergence): 1
Plant response rating, Corn ([5]; Rate 125 g/ha, Postemergence): 4
Corn plant response rating ([5]; Rate 125 g/ha, Preemergence): 1
Plant response rating, Corn ([5]; Rate 250 g/ha, Postemergence): 4
Plant response rating, Corn ([5]; Rate 250 g/ha, Preemergence): 2
Plant response rating, Corn ([5]; Rate 500 g/ha, Postemergence): 7
Plant response rating, Corn ([5]; Rate 500 g/ha, Preemergence): 2
Plant response rating, Crabgrass ([6]; Rate 62 g/ha, Postemergence): 4
Crabgrass plant response rating ([6]; Rate 62 g/ha, Preemergence): 10
Plant response rating, Crabgrass ([6]; Rate 125 g/ha, Postemergence): 9
Crabgrass plant response rating ([6]; Rate 125 g/ha, Preemergence): 10
Plant response rating, Crabgrass ([6]; Rate 250 g/ha, Postemergence): 9
Plant response rating, Crabgrass ([6]; Rate 250 g/ha, Preemergence): 10
Plant response rating, Crabgrass ([6]; Rate 500 g/ha, Postemergence): 9
Plant response rating, Crabgrass ([6]; Rate 500 g/ha, Preemergence): 10
Plant response rating, Giant foxtail ([7]; Rate 62 g/ha, Postemergence): 3
Giant foxtail plant response rating ([7]; Rate 62 g/ha, Preemergence): 10
Plant response rating, Giant foxtail ([7]; Rate 125 g/ha, Postemergence): 7
Giant foxtail plant response rating ([7]; Rate 125 g/ha, Preemergence): 10
Plant response rating, Giant foxtail ([7]; Rate 250 g/ha, Postemergence): 9
Plant response rating, Giant foxtail ([7]; Rate 250 g/ha, Preemergence): 10
Plant response rating, Giant foxtail ([7]; Rate 500 g/ha, Postemergence): 9
Plant response rating, Giant foxtail ([7]; Rate 500 g/ha, Preemergence): 10
Plant response rating, Morningglory ([8]; Rate 62 g/ha, Postemergence): 4
Morningglory plant response rating ([8]; Rate 62 g/ha, Preemergence): 10
Plant response rating, Morningglory ([8]; Rate 125 g/ha, Postemergence): 8
Morningglory plant response rating ([8]; Rate 125 g/ha, Preemergence): 10
Plant response rating, Morningglory ([8]; Rate 250 g/ha, Postemergence): 10
Plant response rating, Morningglory ([8]; Rate 250 g/ha, Preemergence): 10
Plant response rating, Morningglory ([8]; Rate 500 g/ha, Postemergence): 10
Plant response rating, Morningglory ([8]; Rate 500 g/ha, Preemergence): 10
Plant response rating, Redroot pigweed ([9]; Rate 62 g/ha, Postemergence): 9
Redroot pigweed plant response rating ([9]; Rate 62 g/ha, Preemergence): 10
Plant response rating, Redroot pigweed ([9]; Rate 125 g/ha, Postemergence): 9
Redroot pigweed plant response rating ([9]; Rate 125 g/ha, Preemergence): 10
Plant response rating, Redroot pigweed ([9]; Rate 250 g/ha, Postemergence): 10
Plant response rating, Redroot pigweed ([9]; Rate 250 g/ha, Preemergence): 10
Plant response rating, Redroot pigweed ([9]; Rate 500 g/ha, Postemergence): 10
Plant response rating, Redroot pigweed ([9]; Rate 500 g/ha, Preemergence): 10
Plant response rating, Rape ([10]; Rate 62 g/ha, Postemergence): 9
Rape plant response rating ([10]; Rate 62 g/ha, Preemergence): 10
Plant response rating, Rape ([10]; Rate 125 g/ha, Postemergence): 9
Rape plant response rating ([10]; Rate 125 g/ha, Preemergence): 10
Plant response rating, Rape ([10]; Rate 250 g/ha, Postemergence): 9
Plant response rating, Rape ([10]; Rate 250 g/ha, Preemergence): 10
Plant response rating, Rape ([10]; Rate 500 g/ha, Postemergence): 9
Plant response rating, Rape ([10]; Rate 500 g/ha, Preemergence): 10
Plant response rating, Soybean ([11]; Rate 62 g/ha, Postemergence): 8
Soybean plant response rating ([11]; Rate 62 g/ha, Preemergence): 1
Plant response rating, Soybean ([11]; Rate 125 g/ha, Postemergence): 8
Soybean plant response rating ([11]; Rate 125 g/ha, Preemergence): 1
Plant response rating, Soybean ([11]; Rate 250 g/ha, Postemergence): 9
Plant response rating, Soybean ([11]; Rate 250 g/ha, Preemergence): 3
Plant response rating, Soybean ([11]; Rate 500 g/ha, Postemergence): 9
Plant response rating, Soybean ([11]; Rate 500 g/ha, Preemergence): 5
Plant response rating, Sugarbeets ([12]; Rate 62 g/ha, Postemergence): 10
Sugarbeets plant response rating ([12]; Rate 62 g/ha, Preemergence): 10
Plant response rating, Sugarbeets ([12]; Rate 125 g/ha, Postemergence): 10
Sugarbeets plant response rating ([12]; Rate 125 g/ha, Preemergence): 10
Plant response rating, Sugarbeets ([12]; Rate 250 g/ha, Postemergence): 10
Plant response rating, Sugarbeets ([12]; Rate 250 g/ha, Preemergence): 10
Plant response rating, Sugarbeets ([12]; Rate 500 g/ha, Postemergence): 10
Plant response rating, Sugarbeets ([12]; Rate 500 g/ha, Preemergence): 10
Plant response rating, Velvetleaf ([13]; Rate 62 g/ha, Postemergence): 7
Velvetleaf plant response rating ([13]; Rate 62 g/ha, Preemergence): 6
Plant response rating, Velvetleaf ([13]; Rate 125 g/ha, Postemergence): 8
Velvetleaf plant response rating ([13]; Rate 125 g/ha, Preemergence): 10
Plant response rating, Velvetleaf ([13]; Rate 250 g/ha, Postemergence): 9
Plant response rating, Velvetleaf ([13]; Rate 250 g/ha, Preemergence): 10
Plant response rating, Velvetleaf ([13]; Rate 500 g/ha, Postemergence): 9
Plant response rating, Velvetleaf ([13]; Rate 500 g/ha, Preemergence): 10
Plant response rating, Wheat ([14]; Rate 62 g/ha, Postemergence): 2
Wheat plant response rating ([14]; Rate 62 g/ha, Preemergence): 1
Plant response rating, Wheat ([14]; Rate 125 g/ha, Postemergence): 2
Wheat plant response rating ([14]; Rate 125 g/ha, Preemergence): 5
Plant response rating, Wheat ([14]; Rate 250 g/ha, Postemergence): 3
Plant response rating, Wheat ([14]; Rate 250 g/ha, Preemergence): 8
Plant response rating, Wheat ([14]; Rate 500 g/ha, Postemergence): 5
Plant response rating, Wheat ([14]; Rate 500 g/ha, Preemergence): 9
